Results taken from EP0906100B1, “USE OF 5-HT 1A? RECEPTOR ANTAGONISTS FOR THE TREATMENT OF URINARY INCONTINENCE” (RECORDATI S.A., priority 1996, dated 1997).

Assays:
[1] = system: pre-synaptic 5-HT1A receptor; assay: Antagonism of hypothermia induced by 8-OH-DPAT in mice; format: in vivo; settings: s.c., hypothermia induced by 0.5 mg/kg s.c. 8-OH-DPAT
Procedure: Antagonism of hypothermia induced by 8-OH-DPAT in mice:
The antagonistic effect of 5-HT1A receptor antagonists on hypothermia induced by 8-OH-DPAT was evaluated by the method of Moser (Moser, Eur. J. Pharmacol., 193, 165, 1991) with minor modifications.
Male CD-1 mice (28-38 g) obtained from Charles River (Italy) were housed in a climate-controlled room (temperature 22 ± 2°C; humidity 55 ± 15%) and maintained on a 12 h light/dark cycle with free access to food and water. On the day of experiment, mice were placed singly in clear plastic boxes under the same ambient conditions. Body temperature was measured by the insertion of a temperature probe (Termist TM-S, LSI) into the rectum to a depth of 2 cm. Rectal temperature was measured immediately prior to subcutaneous injection of the test compound and 30 min later. All animals then received 8-OH-DPAT (0.5 mg/kg s.c.) and their temperature was measured 30 min later. For each animal, temperature changes were calculated with respect to pretreatment values and the mean values were calculated for each treatment group.

[2] = system: cystometric parameters (bladder volume capacity, micturition pressure); assay: Cystometric parameters (BVC, MP) in the conscious rat; format: in vivo, rats; settings: for BVC before treatment / MP before treatment: baseline; for BVC before treatment / MP before treatment / BVC after treatment / MP after treatment: mean±S.E.
Procedure: Male Sprague Dawley rats (Crl: CD° BR) weighing 250-350 g were used. The animals were housed with free access to food and water and maintained on a forced 12 h alternating light-dark cycle at 22-24°C for at least one week, except during performance of the experiment.
An approximately 10 mm long midline incision was made in the shaved and cleaned abdominal wall. The urinary bladder was gently freed from adhering tissues, emptied, and then cannulated, via an incision at the dome, with a polyethylene cannula (Portex PP30), which was permanently sutured with silk thread. The cannula was exteriorized through a subcutaneous tunnel in the retroscapular area, where it was connected with a plastic adapter to avoid the risk of removal by the animal. For intravenous (i.v.) injection of test compounds, a PE 50 polyethylene tubing filled with physiological saline was inserted into the jugular vein and exteriorized in the retroscapular area.
Since cystometrographic parameters have been reported to be influenced by the time elapsed after catheter implantation […].
On the day of the experiment, the rats were placed in Bollman's cages; after a stabilization period of 20 min, the free tip of the bladder catheter was connected through a T-shaped tube to a pressure transducer (Bentley T 800/Marb P 82) and to a peristaltic pump (Gilson minipuls 2) for a continuous infusion, at the constant rate of 0.1 ml/min, of saline solution into the urinary bladder. The intraluminal pressure signal during infusion was continuously recorded on a polygraph (Battaglia Rangoni KO 380 with ADC1/T amplifier). Two urodynamic parameters were evaluated: bladder volume capacity (BVC) and micturition pressure (MP). BVC (in ml) is defined as the minimum volume infused after which detrusor contraction (followed by micturition) occurs. MP (in mmHg) is defined as the maximal intravesical pressure induced by the contraction of detrusor during micturition. Basal BVC and MP values were calculated as the means of the first two recorded cystometrograms. At this point, the infusion was interrupted and the test compounds were administered. Fifteen minutes after intravenous administration, or one hour after oral drug administration, two additional cystometrograms were recorded in each animal and the mean values of the two cystometrographic parameters were calculated.
The statistical significance of the differences in urodynamic parameter values was evaluated by Student's t test for paired data. Only changes showing a probability P<0.01 were considered to be significant.

[3] = target: T1, 5-HT1A receptor (Rattus norvegicus, UniProt P19327); assay: [3H]8-OH-DPAT binding (5HT1A receptors), rat hippocampi; settings: 1 nM [3H]8-OH-DPAT, read-out: Binding affinity for the 5-HT1A receptor, Ki
T1 construct: Rat hippocampi were homogenized in 50 volumes of ice-cold 50 mM Tris-HCl pH 7.4; from tissue; host or cells: rat hippocampus membranes
T1 sequence (P19327 1-422): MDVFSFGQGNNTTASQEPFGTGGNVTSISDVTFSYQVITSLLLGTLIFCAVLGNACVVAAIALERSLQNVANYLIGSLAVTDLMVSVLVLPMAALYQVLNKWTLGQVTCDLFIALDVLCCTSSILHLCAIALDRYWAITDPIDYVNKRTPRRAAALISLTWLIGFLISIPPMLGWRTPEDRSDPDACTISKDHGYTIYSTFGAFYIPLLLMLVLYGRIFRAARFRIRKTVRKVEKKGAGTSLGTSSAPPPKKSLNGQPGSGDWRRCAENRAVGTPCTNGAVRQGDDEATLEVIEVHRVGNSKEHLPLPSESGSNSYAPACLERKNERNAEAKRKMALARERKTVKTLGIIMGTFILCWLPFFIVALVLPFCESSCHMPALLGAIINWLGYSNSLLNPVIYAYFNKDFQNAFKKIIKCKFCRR
Procedure: [^3H]8-OH-DPAT binding (5HT1A receptors):
Rat hippocampi were homogenized in 50 volumes of ice-cold 50 mM Tris-HCl pH 7.4. The homogenates were centrifuged at 48,000 x g for 10 minutes, and the pellets were resuspended in the same volume of ice-cold buffer, incubated for 10 minutes at 37°C, centrifuged and resuspended two more times. The final pellets obtained were resuspended in 100 volumes of 50 mM Tris-HCl, pH 7.4, containing 0.1 % ascorbic acid and 10 µM pargyline. 1 ml samples were incubated for 30 min at 25°C with 1 nM [^3H]8-OH-DPAT, in absence or presence of different concentrations (10^-5 to 10^-10 M) of the test compound. Non-specific binding was determined in the presence of 10 µM 5-HT. The incubations were terminated by rapid filtration through Whatman GF/B filters using a Brandel cell harvester, after which the filters were washed with 3 x 3 ml of ice-cold buffer. The radioactivity retained on the filters was determined by liquid scintillation counting.

[4] = 30 µg/kg i.v., 15 min after injection
[5] = 100 µg/kg i.v., 15 min after injection
[6] = 300 µg/kg i.v., 15 min after injection
[7] = 10 mg/kg p.o., 1 hour after oral administration
[8] = 30 mg/kg p.o., 1 hour after oral administration
[9] = conscious rats, i.v., NAN-190 up to the highest administrable dose of 300 µg/kg

`COc1ccccc1N1CCN(CCCCN2C(=O)c3ccccc3C2=O)CC1` [NAN-190, 1-(2-methoxyphenyl)-4-[4-(2-phthalimido)-butyl]-piperazine] was tested, and the “ID50 (95%) C.L., antagonistic activity for the pre-synaptic 5-HT1A receptor” value [1] was “not active”, the BVC before treatment ([2]; 30 µg/kg i.v. group) was 0.74 ± 0.09 mL and the MP before treatment ([2]; 30 µg/kg i.v. group) was 99.4±10.1 mmHg. The BVC % change [2, 4] was “+6%”, the MP % change [2, 4] was “+5%” and the BVC after treatment [2, 4] was 0.78 ± 0.10 mL. The MP after treatment [2, 4] was 104.6±9.7 mmHg, the BVC before treatment ([2]; 100 µg/kg i.v. group) was 0.68 ± 0.10 mL and the MP before treatment ([2]; 100 µg/kg i.v. group) was 93.8±11.5 mmHg. For the same molecule, the BVC % change [2, 5] was “+12%”, the MP % change [2, 5] was -12% and the BVC after treatment [2, 5] was 0.76 ± 0.10 mL. The MP after treatment [2, 5] was 82.5±9.2 mmHg, the BVC before treatment ([2]; 300 µg/kg i.v. group) was 0.62 ± 0.06 mL and the MP before treatment ([2]; 300 µg/kg i.v. group) was 86.6±10.3 mmHg. For the same molecule, the BVC % change [2, 6] was -1%, the MP % change [2, 6] was “+2%” and the BVC after treatment [2, 6] was 0.61 ± 0.06 mL. For the same molecule, the MP after treatment [2, 6] was 88.4±11.8 mmHg, the BVC before treatment ([2]; 10 mg/kg p.o. group) was 0.54 ± 0.08 mL and the MP before treatment ([2]; 10 mg/kg p.o. group) was 106.1±10.4 mmHg. For the same molecule, the BVC % change [2, 7] was -14%, the MP % change [2, 7] was -14% and the BVC after treatment [2, 7] was 0.46 ± 0.07 mL. The MP after treatment [2, 7] was 90.8±12.5 mmHg, the BVC before treatment ([2]; 30 mg/kg p.o. group) was 0.71 ± 0.09 mL and the MP before treatment ([2]; 30 mg/kg p.o. group) was 105.1±10.5 mmHg. The BVC % change [2, 8] was -15%, the MP % change [2, 8] was -9% and the BVC after treatment [2, 8] was 0.60 ± 0.09 mL. The MP after treatment [2, 8] was 95.8±15.3 mmHg, the “effect on BVC (in words)” value [2, 9] was “devoid of significant effects” and the “effect on MP (in words)” value [2, 9] was “devoid of significant effects”. The “activity on cystometric parameters after oral administration (in words)” value ([2]; conscious rats, oral, doses up to 30 mg/kg) was “inactive” and the Ki [3] was 1.9 nM.
